Measurements published in patent US10407422B2, “Triazolopyridine inhibitors of myeloperoxidase” (priority 2015, dated 2019).

Assays:
[1] = target: T1, myeloperoxidase (MPO) (Homo sapiens (Human), UniProt P05164); test: MPO chlorination assay (APF assay); assay type: biochemical; details: potency range class
Procedure: [formula] where A=minimal Y value (activity level of inhibited sample), B=maximal Y value (activity level of uninhibited sample), C=Log IC50, D=Hill Slope, x=concentration of inhibitor. MPO Chlorination Assay (APF Assay) MPO chlorination activity was measured in 100 mM KPi (pH 7.4) by utilizing the non-fluorescent reagent Aminophenyl fluorescein (APF, Invitrogen Cat. #A36003). APF is cleaved by (—OCl) to yield the fluorescent compound fluorescein. Reactions were carried out in 50 μL total volume by adding a 25 μL mixture of 200 pM myeloperoxidase and 120 mM NaCl to 100 nL inhibitor in 100% DMSO in a 384 well, non-binding surface clear bottom plate (Corning #3655). Enzyme, inhibitor, and chloride were preincubated for ten minutes at room temperature. After the ten minute preincubation, 25 μL of an APF mixture containing […], 120 mM NaCl and 10 μM H2O2 was added to the plate using the internal dispensing system of a Hammatsu FDSS 6000. Kinetic determinations were carried out immediately on the FDSS 6000 (3 minute kinetic read, 1 read every second, ex: 485 nm, em: 535 nm). IC50 values for inhibitors were calculated by taking the slope of the linear portion of the kinetic measurement (20 seconds to ˜80-120 secs). IC50 values were calculated by determining the slope of the linear portion of the kinetic trace […], and using that calculated slope to determine % inhibition occurring at each concentration of inhibitor using the following equation: [formula] where A=minimal Y value (activity level of inhibited sample), B=maximal Y value (activity level of uninhibited sample), C=Log IC50, D=Hill Slope, x=concentration of inhibitor. EPX Bromination Assay

[2] = target: T1, myeloperoxidase (MPO); test: MPO peroxidation assay (Amplex Red assay); assay type: biochemical; details: potency range class
Procedure: MPO Peroxidation Assay (Amplex Red Assay) MPO peroxidation activity was measured in 100 mM KPi (pH 7.4) by utilizing the non-fluorescent reagent Amplex Red (Invitrogen Cat. #A12222) which can be oxidized to the highly fluorescent resorufin. Amplex Red is oxidized by the peroxidase action of MPO to resorufin. Reactions were carried out in 50 μL total volume by adding a 25 μL mixture of 200 pM myeloperoxidase and 40 nM H2O2(Sigma #349887) to 100 nL inhibitor in 100% DMSO in a 384 well Perkin Elmer Optiplate. Enzyme and compound were preincubated for ten minutes at room temperature. After the ten minute preincubation, 25 μL of an Amplex Red mixture containing 200 μM Amplex Red and 10 mM H2O2 was added to the plate. Kinetic determinations were carried out immediately on a Perkin Elmer Envision (15 minute kinetic read, Ex: 535 nm, Em: 590 nm). IC50 values were calculated by determining the slope of the linear portion of the kinetic trace (180-540 secs), and using that calculated slope to determine % inhibition occurring at each concentration of inhibitor using the following equation: [formula] where A=minimal Y value (activity level of inhibited sample), B=maximal Y value (activity level of uninhibited sample), C=Log IC50, D=Hill Slope, x=concentration of inhibitor. MPO Chlorination Assay (APF Assay)

T1 sequence (P05164 49-745): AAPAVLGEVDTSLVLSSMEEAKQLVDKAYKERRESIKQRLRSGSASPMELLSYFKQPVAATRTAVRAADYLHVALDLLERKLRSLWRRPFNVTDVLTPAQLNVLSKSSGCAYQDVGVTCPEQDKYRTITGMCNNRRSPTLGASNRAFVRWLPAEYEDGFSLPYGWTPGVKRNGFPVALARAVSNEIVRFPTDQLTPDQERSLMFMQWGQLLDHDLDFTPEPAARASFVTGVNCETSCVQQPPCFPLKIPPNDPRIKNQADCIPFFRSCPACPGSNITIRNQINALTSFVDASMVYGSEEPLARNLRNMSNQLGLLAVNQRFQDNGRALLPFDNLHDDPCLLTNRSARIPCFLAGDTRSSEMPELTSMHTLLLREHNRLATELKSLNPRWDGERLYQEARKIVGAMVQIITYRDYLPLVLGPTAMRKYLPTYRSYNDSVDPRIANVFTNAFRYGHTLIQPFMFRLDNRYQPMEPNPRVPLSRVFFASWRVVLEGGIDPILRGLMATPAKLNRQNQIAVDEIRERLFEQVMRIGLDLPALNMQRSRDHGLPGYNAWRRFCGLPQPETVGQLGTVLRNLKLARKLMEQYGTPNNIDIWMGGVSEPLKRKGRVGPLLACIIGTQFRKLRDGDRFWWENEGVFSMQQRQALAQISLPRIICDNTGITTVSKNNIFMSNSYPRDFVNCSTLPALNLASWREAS

Row | SMILES | IC50 [1] | IC50 [2]
1 | Nc1cc(Cc2ccn(-c3ccccc3)n2)c2nn[nH]c2n1 [Example 33, 7-((1-Phenyl-1H-pyrazol-3-yl)methyl)-3H-[1,2,3]triazolo[4,5-b]pyridin-5-amine] | 0.101 to 0.999 µM | 0.101 to 0.999 µM
2 | Nc1cc(Cc2cnn(-c3cccc(COc4ccccc4)c3)c2)c2nn[nH]c2n1 [Example 36, 7-((1-(3-(Phenoxymethyl)phenyl)-1H-pyrazol-4-yl)methyl)-3H-[1,2,3]triazolo[4,5-b]pyridin-5-amine] | 0.101 to 0.999 µM | 0.001 to 0.1 µM
3 | Nc1cc(Cc2cnn(Cc3ccc(-c4ccccc4)cc3)c2)c2nn[nH]c2n1 [Example 39, 7-((1-([1,1′-Biphenyl]-4-ylmethyl)-1H-pyrazol-4-yl)methyl)-3H-[1,2,3]triazolo[4,5-b]pyridin-5-amine] | 0.101 to 0.999 µM | 0.001 to 0.1 µM
4 | Nc1cc(Cc2cnn(Cc3cccc4ccccc34)c2)c2nn[nH]c2n1 [Example 41, 7-((1-(Naphthalen-1-ylmethyl)-1H-pyrazol-4-yl)methyl)-3H-[1,2,3]triazolo[4,5-b]pyridin-5-amine] | 0.001 to 0.1 µM | 0.001 to 0.1 µM
5 | Nc1cc(Cc2cnn(Cc3ccc4ccccc4c3)c2)c2nn[nH]c2n1 [Example 42, 7-((1-(Naphthalen-2-ylmethyl)-1H-pyrazol-4-yl)methyl)-3H-[1,2,3]triazolo[4,5-b]pyridin-5-amine] | 0.001 to 0.1 µM | 0.001 to 0.1 µM
6 | Nc1cc(Cc2cnn(Cc3cccc(-c4ccccc4)c3)c2)c2nn[nH]c2n1 [Example 44, 7-((1-([1,1′-Biphenyl]-3-ylmethyl)-1H-pyrazol-4-yl)methyl)-3H-[1,2,3]triazolo[4,5-b]pyridin-5-amine] | 0.001 to 0.1 µM | 0.001 to 0.1 µM
7 | Nc1cc(Cc2cnn(Cc3ccc(C(=O)O)cc3)c2)c2nn[nH]c2n1 [Example 46, 4-((4-((5-Amino-3H-[1,2,3]triazolo[4,5-b]pyridin-7-yl)methyl)-1H-pyrazol-1-yl)methyl)benzoic acid] | 1 to 10 µM | 1 to 10 µM
8 | Nc1cc(Cc2cc(-c3ccccc3)no2)c2nn[nH]c2n1 [Example 48, 7-((3-Phenylisoxazol-5-yl)methyl)-3H-[1,2,3]triazolo[4,5-b]pyridin-5-amine] | 0.101 to 0.999 µM | 0.101 to 0.999 µM
9 | Nc1cc(Cc2cnn(C3CCCC3)c2)c2nn[nH]c2n1 [Example 54, 7-((1-Cyclopentyl-1H-pyrazol-4-yl)methyl)-3H-[1,2,3]triazolo[4,5-b]pyridin-5-amine] | 0.001 to 0.1 µM | 0.001 to 0.1 µM
10 | Nc1cc(Cc2cnn(CC3CCCCC3)c2)c2nn[nH]c2n1 [Example 55, 7-((1-(Cyclohexylmethyl)-1H-pyrazol-4-yl)methyl)-3H-[1,2,3]triazolo[4,5-b]pyridin-5-amine] | 0.001 to 0.1 µM | 0.001 to 0.1 µM
11 | Nc1cc(Cc2cnn(Cc3cccc(OC(F)(F)F)c3)c2)c2nn[nH]c2n1 [Example 60, 7-((1-(3-(Trifluoromethoxy)benzyl)-1H-pyrazol-4-yl)methyl)-3H-[1,2,3]triazolo[4,5-b]pyridin-5-amine] | 0.001 to 0.1 µM | 0.001 to 0.1 µM

The next lines start with the values.

Row | IC50 [1] | IC50 [2] | SMILES
12 | 0.001 to 0.1 µM | 0.001 to 0.1 µM | Nc1cc(Cc2cnn(-c3cccc4ccccc34)c2)c2nn[nH]c2n1 [Example 9, 7-((1-(Naphthalen-1-yl)-1H-pyrazol-4-yl)methyl)-3H-[1,2,3]triazolo[4,5-b]pyridin-5-amine]
13 | 0.101 to 0.999 µM | 0.001 to 0.1 µM | Cc1cc(-n2cc(Cc3cc(N)nc4[nH]nnc34)cn2)ccc1F [Example 10, 7-((1-(4-Fluoro-3-methylphenyl)-1H-pyrazol-4-yl)methyl)-3H-[1,2,3]triazolo[4,5-b]pyridin-5-amine]
14 | 0.001 to 0.1 µM | 0.001 to 0.1 µM | Nc1cc(Cc2cnn(-c3cccc(-c4ccccc4)c3)c2)c2nn[nH]c2n1 [Example 11, 7-((1-([1,1′-Biphenyl]-3-yl)-1H-pyrazol-4-yl)methyl)-3H-[1,2,3]triazolo[4,5-b]pyridin-5-amine]
15 | 0.101 to 0.999 µM | 0.001 to 0.1 µM | Nc1cc(Cc2cnn(-c3cccc(C(F)(F)F)c3)c2)c2nn[nH]c2n1 [Example 14, 7-((1-(3-(Trifluoromethyl)phenyl)-1H-pyrazol-4-yl)methyl)-3H-[1,2,3]triazolo[4,5-b]pyridin-5-amine]
16 | 0.001 to 0.1 µM | 0.001 to 0.1 µM | Cc1ccnc(-n2cc(Cc3cc(N)nc4[nH]nnc34)cn2)c1 [Example 19, 7-((1-(4-Methylpyridin-2-yl)-1H-pyrazol-4-yl)methyl)-3H-[1,2,3]triazolo[4,5-b]pyridin-5-amine]
17 | 0.001 to 0.1 µM | 0.001 to 0.1 µM | Cc1cccc(-n2cc(Cc3cc(N)nc4[nH]nnc34)cn2)n1 [Example 20, 7-((1-(6-Methylpyridin-2-yl)-1H-pyrazol-4-yl)methyl)-3H-[1,2,3]triazolo[4,5-b]pyridin-5-amine]
18 | 0.101 to 0.999 µM | 0.001 to 0.1 µM | Nc1cc(Cc2cnn(-c3cccc(Cc4ccccc4)c3)c2)c2nn[nH]c2n1 [Example 21, 7-((1-(3-Benzylphenyl)-1H-pyrazol-4-yl)methyl)-3H-[1,2,3]triazolo[4,5-b]pyridin-5-amine]
19 | 0.001 to 0.1 µM | 0.101 to 0.999 µM | Cc1ccccc1-n1cc(Cc2cc(N)nc3[nH]nnc23)cn1 [Example 24, 7-((1-(2-Methylphenyl)-1H-pyrazol-4-yl)methyl)-3H-[1,2,3]triazolo[4,5-b]pyridin-5-amine]
20 | 0.101 to 0.999 µM | 0.001 to 0.1 µM | Cc1cccc(-n2cc(Cc3cc(N)nc4[nH]nnc34)cn2)c1 [Example 25, 7-((1-(3-Methylphenyl)-1H-pyrazol-4-yl)methyl)-3H-[1,2,3]triazolo[4,5-b]pyridin-5-amine]
21 | 0.001 to 0.1 µM | 0.001 to 0.1 µM | Nc1cc(Cc2cnn(-c3ccccn3)c2)c2nn[nH]c2n1 [Example 31, 7-((1-(Pyridin-2-yl)-1H-pyrazol-4-yl)methyl)-3H-[1,2,3]triazolo[4,5-b]pyridin-5-amine]
22 | 0.001 to 0.1 µM | 0.001 to 0.1 µM | Nc1cc(Cc2cnn(CCc3ccccc3)c2)c2nn[nH]c2n1 [Example 40, 7-((1-Phenethyl-1H-pyrazol-4-yl)methyl)-3H-[1,2,3]triazolo[4,5-b]pyridin-5-amine]
23 | 0.101 to 0.999 µM | 0.001 to 0.1 µM | Cc1ccccc1Cn1cc(Cc2cc(N)nc3[nH]nnc23)cn1 [Example 43, 7-((1-(2-Methylbenzyl)-1H-pyrazol-4-yl)methyl)-3H-[1,2,3]triazolo[4,5-b]pyridin-5-amine]
24 | 0.001 to 0.1 µM | 0.001 to 0.1 µM | Nc1cc(Cc2cnn(Cc3ccc(Cl)cc3)c2)c2nn[nH]c2n1 [Example 45, 7-((1-(4-Chlorobenzyl)-1H-pyrazol-4-yl)methyl)-3H-[1,2,3]triazolo[4,5-b]pyridin-5-amine]
25 | 0.101 to 0.999 µM | 0.001 to 0.1 µM | Nc1cc(Cc2cnn(Cc3ccc(-n4cccn4)cc3)c2)c2nn[nH]c2n1 [Example 56, 7-[(1-{[4-(1H-Pyrazol-1-yl)phenyl]methyl}-1H-pyrazol-4-yl)methyl]-3H-[1,2,3]triazolo[4,5-b]pyridin-5-amine]
26 | 0.001 to 0.1 µM | 0.001 to 0.1 µM | Nc1cc(Cc2cnn(Cc3ccccc3Cl)c2)c2nn[nH]c2n1 [Example 57, 7-((1-(2-Chlorobenzyl)-1H-pyrazol-4-yl)methyl)-3H-[1,2,3]triazolo[4,5-b]pyridin-5-amine]
27 | 0.101 to 0.999 µM | 0.001 to 0.1 µM | Cc1nc(-c2cccc(Cn3cc(Cc4cc(N)nc5[nH]nnc45)cn3)c2)no1 [Example 59, 7-((1-(3-(5-Methyl-1,2,4-oxadiazol-3-yl)benzyl)-1H-pyrazol-4-yl)methyl)-3H-[1,2,3]triazolo[4,5-b]pyridin-5-amine]
